The results in this text go back to patent publication US20050137255A1, “Crystalline escitalopram hydrobromide and methods for preparing the same” (H. Lundbeck A/S, priority 2002, published 2005).

Common to all, as to format: physicochemical
The nature of data set [1]: Exposure of crystalline material to air (hygroscopicity). The settings on record: sample exposed to air.
The nature of data set [2]: Thermogravimetric analysis (TGA) of Form I. Particulars: heated 10°/min. As to the method: The sample (1-5 mg) was heated 10°/min. on a TA Instruments TGA 2950 (available from TA Instruments of New Castle, Del.). No weight loss (<0.1%) was observed up to 150° C. Decomposition began at approximately 240° C.
A short description of data set [3]: Stability (stated property).
Data set [4] is described as follows: Dynamic vapor sorption (DVS) of Form I.

“Also recorded” adds a separate entry of the source. Counter-ions that a name gives are not always drawn.

`CN(C)CCC[C@@]1(c2ccc(F)cc2)OCc2cc(C#N)ccc21` [Form I, (S)-1-[3-(dimethylamino)propyl]-1-(4-fluorophenyl)-1,3-dihydro-5-isobenzofuran carbonitrile hydrobromide]: the hygroscopicity result in data set [1] was “non-hygroscopic”; in data set [4] (after water uptake at 80% relative humidity), “very hygroscopic”; in data set [4] (relative humidity less than (about) 70%, hydrobromide), “not hygroscopic; also recorded: non-hygroscopic”. In addition, in data set [2], the decomposition began result was “approximately 240 °C”. This compound had a weight loss in data set [2] (up to 150° C.) of less than 0.1%. In addition, the stability entry in data set [3] is reported as “stable”. Also, the water absorbed entry in data set [4] (at 80% relative humidity, corresponds to 14%) is reported as “about 3.6 mol-equivalent of water”; in data set [4] (at 95% relative humidity) it was ~9 mol-equivalent of water; in data set [4] (first run, at 80% relative humidity), 14%; in data set [4] (first run, until the relative humidity exceeded 70%), “no water was absorbed”.
